Assay results as given in patent US12617783B2, “Heterocyclic GLP-1R agonists” (BIOMEA FUSION, INC., priority 2024, dated 2026).

The compounds below were run against T1, human GLP-1R (Homo sapiens, UniProt P43220) (assay: GLP-1R cAMP assay (Example B1a, HTRF, 30 min at room temperature)). Settings: cAMP accumulation in HEK293 expressing human GLP-1R, no BETP, 30 min room temperature (Method B1a, compounds ID 1-609), Table 1; read-out: EC50.
T1 construct: host or cells: HEK293
Type: cell-based
Procedure, shortened: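 Competitive HTRF read-out of cAMP after 30 min room-temperature stimulation, BETP absent, of human GLP-1R-HEK293 cells (1,000/well) in HEPES buffer with 500 μM IBMX and 0.1% BSA. Activation normalised to GLP-1(7-37) positive control. EC50 from 4-parameter non-linear regression.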

T1 sequence (P43220 24-463): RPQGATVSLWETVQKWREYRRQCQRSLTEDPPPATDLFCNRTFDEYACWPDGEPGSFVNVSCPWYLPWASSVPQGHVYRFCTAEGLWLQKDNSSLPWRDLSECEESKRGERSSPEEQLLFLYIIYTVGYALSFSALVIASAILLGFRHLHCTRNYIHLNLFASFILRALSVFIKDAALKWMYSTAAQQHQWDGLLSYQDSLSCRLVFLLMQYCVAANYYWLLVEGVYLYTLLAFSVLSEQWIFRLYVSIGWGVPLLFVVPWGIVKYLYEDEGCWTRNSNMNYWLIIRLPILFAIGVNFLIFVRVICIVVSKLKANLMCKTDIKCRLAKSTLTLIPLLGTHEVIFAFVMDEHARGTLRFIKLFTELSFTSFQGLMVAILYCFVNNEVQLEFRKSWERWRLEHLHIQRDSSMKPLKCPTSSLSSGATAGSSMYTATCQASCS

Compound	EC50
Cc1cc(-n2nc3c(c2-n2ccn(-c4ccc5c(cnn5C)c4F)c2=O)[C@@H]2CC[C@H](C3)N2C(=O)c2cc3sc(C4CCOC(C)(C)C4)nc3cc2C2(c3noc(=O)[nH]3)CC2)cc(C)c1F (stereo partly drawn) [Compound 133, 3-[1-[2-(2,2-dimethyltetrahydropyran-4-yl)-6-[(1S,8R)-4-(4-fluoro-3,5-dimethyl-phenyl)-3-[3-(4-fluoro-1-methyl-indazol-5-yl)-2-oxo-imidazol-1-yl]-4,5,11-triazatricyclo[6.2.1.02,6]undeca-2,5-diene-11-carbonyl]-1,3-benzothiazol-5-yl]cyclopropyl]-4H-1,2,4-oxadiazol-5-one]	> 10000 nM
CC[C@H]1C[C@]1(c1noc(=O)[nH]1)n1c(C(=O)N2[C@@H]3CC[C@H]2c2c(nn(-c4cc(C)c(F)c(C)c4)c2-n2ccn(-c4ccc5c(cnn5C)c4F)c2=O)C3)cc2cc([C@H]3CCOC(C)(C)C3)ccc21 [Compound 434, 3-[(1S,2S)-1-[5-[(4S)-2,2-dimethyltetrahydropyran-4-yl]-2-[(1S,8R)-4-(4-fluoro-3,5-dimethyl-phenyl)-3-[3-(4-fluoro-1-methyl-indazol-5-yl)-2-oxo-imidazol-1-yl]-4,5,11-triazatricyclo[6.2.1.02,6]undeca-2,5-diene-11-carbonyl]indol-1-yl]-2-ethyl-cyclopropyl]-4H-1,2,4-oxadiazol-5-one]	175 nM
Cc1cc(-n2nc3c(c2-n2ccn(-c4ccc5cnncc5c4)c2=O)[C@@H]2CC[C@H](C3)N2C(=O)c2cc3cc([C@H]4CCOC(C)(C)C4)ccc3n2[C@@]2(c3noc(=O)[nH]3)C[C@@H]2C)cc(C)c1F [Compound 127, 3-((1S,2S)-1-(5-((S)-2,2-dimethyltetrahydro-2H-pyran-4-yl)-2-((4S,7R)-2-(4-fluoro-3,5-dimethylphenyl)-3-(2-oxo-3-(phthalazin-6-yl)-2,3-dihydro-1H-imidazol-1-yl)-2,4,5,6,7,8-hexahydro-4,7-epiminocyclohepta [c]pyrazole-9-carbonyl)-1H-indol-1-yl)-2-methylcyclopropyl)-1,2,4-oxadiazol-5 (4H)-one]	381 nM
Cc1cc(-n2nc3c(c2-n2ccn(-c4ccc5c(cnn5C)c4F)c2=O)[C@@H]2CC[C@H](C3)N2C(=O)c2cc3cc(C4CCOC(C)(C)C4)cnc3n2[C@@]2(c3noc(=O)[nH]3)C[C@@H]2C)cc(C)c1F (stereo partly drawn) [Compound 311, 3-((1S,2S)-1-(5-(2,2-dimethyltetrahydro-2H-pyran-4-yl)-2-((4S,7R)-3-(3-(4-fluoro-1-methyl-1H-indazol-5-yl)-2-oxo-2,3-dihydro-1H-imidazol-1-yl)-2-(4-fluoro-3,5-dimethylphenyl)-2,4,5,6,7,8-hexahydro-4,7-epiminocyclohepta [c]pyrazole-9-carbonyl)-1H-pyrrolo[2,3-b]pyridin-1-yl)-2-methylcyclopropyl)-1,2,4-oxadiazol-5(4H)-one]	57.3 nM

Continued, values first:

EC50	Compound
> 10000 nM	Cc1cc(-n2nc3c(c2-n2ccn(-c4ccc5c(cnn5C)c4F)c2=O)[C@@H]2CC[C@H](C3)N2C(=O)c2cc3nc(C4CCOC(C)(C)C4)sc3cc2C2(c3noc(=O)[nH]3)CC2)cc(C)c1F (stereo partly drawn) [Compound 129, 3-[1-[2-(2,2-dimethyltetrahydropyran-4-yl)-5-[(1S,8R)-4-(4-fluoro-3,5-dimethyl-phenyl)-3-[3-(4-fluoro-1-methyl-indazol-5-yl)-2-oxo-imidazol-1-yl]-4,5,11-triazatricyclo[6.2.1.02,6]undeca-2,5-diene-11-carbonyl]-1,3-benzothiazol-6-yl]cyclopropyl]-4H-1,2,4-oxadiazol-5-one]
699 nM	Cc1cc(-n2nc3c(c2-n2ccn(-c4ccc5c(cnn5C)c4F)c2=O)[C@@H]2CC[C@H](C3)N2C(=O)c2cc3cc([C@H]4CCOC(C)(C)C4)ccc3n2[C@@]2(C(=O)NC3CC3)C[C@@H]2C)cc(C)c1F [Compound 246, cis-(1S,2S)-N-cyclopropyl-1-[5-[(4S)-2,2-dimethyltetrahydropyran-4-yl]-2-[(1S,8R)-4-(4-fluoro-3,5-dimethyl-phenyl)-3-[3-(4-fluoro-1-methyl-indazol-5-yl)-2-oxo-imidazol-1-yl]-4,5,11-triazatricyclo[6.2.1.02,6]undeca-2,5-diene-11-carbonyl]indol-1-yl]-2-methyl-cyclopropanecarboxamide]
≥ 10000 nM	Cc1cc(-n2nc3c(c2-n2ccn(-c4ccc5c(cnn5C)c4F)c2=O)[C@@H]2CC[C@H](C3)N2C(=O)c2cc3cc([C@H]4CCOC5(CC5)C4)ccc3n2[C@]2(c3noc(=O)[nH]3)C[C@H]2C)cc(C)c1F [Compound 519, 3-[(1R,2R)-1-[2-[(1S,8R)-4-(4-fluoro-3,5-dimethyl-phenyl)-3-[3-(4-fluoro-1-methyl-indazol-5-yl)-2-oxo-imidazol-1-yl]-4,5,11-triazatricyclo[6.2.1.02,6]undeca-2,5-diene-11-carbonyl]-5-[(7S)-4-oxaspiro[2.5]octan-7-yl]indol-1-yl]-2-methyl-cyclopropyl]-4H-1,2,4-oxadiazol-5-one]
> 10000 nM	Cc1cc(-n2nc3c(c2-n2ccn(-c4ccc5c(cnn5C)c4F)c2=O)[C@@H]2CC[C@H](C3)N2C(=O)c2cc3sc([C@@H]4CCOC(C)(C)C4)nc3n2[C@@]2(c3noc(=O)[nH]3)C[C@@H]2C)cc(C)c1F [Compound 307, 3-[(1S,2S)-1-[2-[(4R)-2,2-dimethyltetrahydropyran-4-yl]-5-[(1S,8R)-4-(4-fluoro-3,5-dimethyl-phenyl)-3-[3-(4-fluoro-1-methyl-indazol-5-yl)-2-oxo-imidazol-1-yl]-4,5,11-triazatricyclo[6.2.1.02,6]undeca-2,5-diene-11-carbonyl]pyrrolo[2,3-d]thiazol-4-yl]-2-methyl-cyclopropyl]-4H-1,2,4-oxadiazol-5-one]
≥ 10000 nM	Cc1cc(-n2nc3c(c2-n2ccn(-c4ccc5c(cnn5C)c4F)c2=O)[C@H]2CC[C@@H](CC3)N2C(=O)c2cc3cc([C@H]4CCOC(C)(C)C4)ccc3n2[C@@]2(c3noc(=O)[nH]3)C[C@@H]2C)cc(C)c1F [Compound 524, 3-[(1S,2S)-1-[5-[(4S)-2,2-dimethyltetrahydropyran-4-yl]-2-[(1R,9S)-4-(4-fluoro-3,5-dimethyl-phenyl)-3-[3-(4-fluoro-1-methyl-indazol-5-yl)-2-oxo-imidazol-1-yl]-4,5,12-triazatricyclo[7.2.1.02,6]dodeca-2,5-diene-12-carbonyl]indol-1-yl]-2-methyl-cyclopropyl]-4H-1,2,4-oxadiazol-5-one]
641 nM	Cc1cc(-n2nc3c(c2-n2ccn(-c4ccc5c(cnn5C)c4F)c2=O)[C@@H]2CC[C@H](C3)N2C(=O)c2cc3cc([C@H]4CCOC(C)(C)C4)ccc3n2[C@@]2(CNC(=O)CO)C[C@@H]2C)cc(C)c1F [Compound 241, N-[[(1S,2S)-1-[5-[(4S)-2,2-dimethyltetrahydropyran-4-yl]-2-[(1S,8R)-4-(4-fluoro-3,5-dimethyl-phenyl)-3-[3-(4-fluoro-1-methyl-indazol-5-yl)-2-oxo-imidazol-1-yl]-4,5,11-triazatricyclo[6.2.1.02,6]undeca-2,5-diene-11-carbonyl]indol-1-yl]-2-methyl-cyclopropyl]methyl]-2-hydroxy-acetamide]
